Values of other authors as cited in US8759069B2, “Contaminant control in Zymomonas fermentation using hop acids” (priority 2012, dated 2014).

Columns and labels:
[1] = system: Zymomonas mobilis strain ZM4; conditions: antibiotic concentrations that are safe to use with yeast
bacterial contamination = conditions: batch Zymomonas mobilis fermentation for ethanol production

Compound	effect on Zymomonas mobilis strain ZM4 [1]	control of bacterial contamination (bacterial contamination)
CC1(C)S[C@@H]2[C@H](NC(=O)Cc3ccccc3)C(=O)N2[C@H]1C(=O)O [penicillin G]	safe for use with Zymomonas	successfully used to control bacterial contamination
[H]/N=C(/N)N[C@H]1[C@H](O)[C@@H](O)[C@H](O[C@@H]2O[C@@H](C)[C@](O)(C=O)[C@H]2O[C@@H]2O[C@@H](CO)[C@H](O)[C@@H](O)[C@@H]2NC)[C@@H](N/C(N)=N\[H])[C@@H]1O [streptomycin]	inhibitory to growth	–
polymixin	inhibitory to growth	–
